The results in this text go back to article PMC8477192, “An ionic lock and a hydrophobic zipper mediate the coupling between an insect pheromone receptor BmOR3 and downstream effectors” (The Journal of Biological Chemistry, 2021).

Like-named read-outs stand apart in the source and are kept apart here.

Format in all cases: cell-based
In assay [1] the target is T1, BmOR3–BmOrco (Bombyx mori, UniProt Q5FBE0).
T1 sequence (Q5FBE0 1-439): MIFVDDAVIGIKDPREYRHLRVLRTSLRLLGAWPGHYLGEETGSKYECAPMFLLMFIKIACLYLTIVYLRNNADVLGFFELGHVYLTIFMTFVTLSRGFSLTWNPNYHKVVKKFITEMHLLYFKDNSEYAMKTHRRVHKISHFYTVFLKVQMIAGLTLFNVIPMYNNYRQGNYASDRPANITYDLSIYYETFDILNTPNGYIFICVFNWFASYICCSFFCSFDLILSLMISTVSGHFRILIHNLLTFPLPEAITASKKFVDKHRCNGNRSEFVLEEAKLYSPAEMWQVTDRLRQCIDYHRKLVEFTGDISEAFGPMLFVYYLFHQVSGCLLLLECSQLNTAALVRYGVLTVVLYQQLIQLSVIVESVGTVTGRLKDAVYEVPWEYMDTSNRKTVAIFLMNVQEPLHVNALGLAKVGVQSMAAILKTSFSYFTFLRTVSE
T1 sequence (Q7YT34 1-472 partner): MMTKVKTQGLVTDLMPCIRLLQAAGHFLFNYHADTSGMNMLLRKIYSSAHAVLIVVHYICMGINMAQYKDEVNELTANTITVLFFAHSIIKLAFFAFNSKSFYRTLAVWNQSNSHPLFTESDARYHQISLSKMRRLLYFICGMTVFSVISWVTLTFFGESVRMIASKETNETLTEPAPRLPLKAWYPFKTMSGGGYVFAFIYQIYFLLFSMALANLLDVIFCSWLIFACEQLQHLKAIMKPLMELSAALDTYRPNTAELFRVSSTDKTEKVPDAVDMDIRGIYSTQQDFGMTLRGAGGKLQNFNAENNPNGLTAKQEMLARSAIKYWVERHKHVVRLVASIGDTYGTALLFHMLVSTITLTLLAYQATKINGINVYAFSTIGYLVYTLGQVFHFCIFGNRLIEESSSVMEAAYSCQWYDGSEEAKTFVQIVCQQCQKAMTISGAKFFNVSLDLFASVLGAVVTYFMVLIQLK
Kind of assay: BmOR3–BmOrco intermolecular BRET assay. The conditions noted are these: HEK293 cells; 5 min stimulation; read-out: EC50 of BRET signal increase between Rluc-BmOR3 and YFP-BmOrco. As to the method: HEK293 cells were cotransfected with the N-terminal Rluc-tagged WT BmOR3 together with N-terminal YFP-fused BmOrco plasmids or their mutants. Twenty-four hours after transfection, cells were distributed into a 96-well microplate. After another 24 h, the cells were stimulated with different concentrations of bombykal for 5 min. BRET between RLuc and YFP was measured using a Mithras LB 940 multimode reader after the addition of the RLuc substrate coelenterazine h (5 μM). The BRET signal was calculated as the ratio of emission of YFP (530 nm) to RLuc (485 nm). For the saturation BRET between Rluc-BmOrco and YFP-BmOR3, HEK293 cells were transfected with a fixed amount of Rluc-BmOrco and increasing amounts of YFP-BmOR3. The BRET signal between RLuc and YFP was directly measured after the addition of the substrate coelenterazine h (5 μM).

Assay [2] has as its target T2, BmOR3 (Bombyx mori, UniProt Q5FBE0). Kind of assay: Arrestin recruitment BRET assay. As to conditions: HEK293 cells, 10 min stimulation. As to the method: HEK293 cells were transiently cotransfected with the N-terminal YFP-tagged BmOR3 together with N-terminal Rluc-fused β-arrestin-1, β-arrestin-2, or BmArr plasmids. Twenty-four hours after transfection, cells were distributed into a 96-well microplate and incubated for additional 24 h. The cells were stimulated with varying concentrations of bombykal for 10 min, and the BRET signal between YFP (530 nm) and Rluc (485 nm) was measured after the addition of the Rluc substrate coelenterazine h (5 μM) using a Mithras LB 940 multimode reader (Berthold Technologies). The BRET signal was calculated as the ratio of emission of YFP to Rluc.

In assay [3] the target is T2, BmOR3. Kind of assay: BRET-based internalization assay (Rluc-BmOR3 / Lyn-YFP). As to conditions: HEK293 cells; 1 μM, 20 min. The protocol: BRET-based internalization assay was performed as previously described ([57]). Briefly, HEK293 cells treated with Ctrl or β-arrestin-1/2 siRNA, or pretransfected with BmArr, were transiently transfected with N-terminal Rluc-fused BmOR3 and plasma membrane marker Lyn-YFP. Twenty-four hours after transfection, the cells were detached and distributed into a 96-well microplate. After another 24-h incubation at 37 °C, the cells were stimulated with vehicle or 1 μM bombykal at 37 °C for 20 min. Rluc substrate coelenterazine h was added at a final concentration of 5 μM before light emissions of YFP and Rluc were recorded using a Mithras LB 940 microplate reader (Berthold Technologies). The BRET signal was calculated as the ratio of emission of YFP to Rluc.

The target of assay [4] is T2, BmOR3. Description: Western blotting of ERK and SRC phosphorylation. The conditions noted are these: BmOR3-expressing HEK293 cells; 1 μM, 15 min; abrogated in β-arrestin siRNA-transfected cells. The protocol: HEK293 cells transfected with BmOR3 in the absence or presence of βarrestin1/2 siRNA were starved for 12 h at 37 °C before stimulated with 1 μM bombykal for 15 min. The cells were lysed in ice-cold lysis buffer (50 mM Tris-HCl, pH 7.4, 150 mM NaCl, 1 mM NaF, 1% Triton, 2 mM EDTA, 1% NP-40, 1% protease and phosphatase inhibitor cocktail), and the supernatant was collected after centrifugation. Proteins were separated by PAGE and transferred to PVDF membrane. After blocking in PBS containing 5% bovine serum albumin and 0.1% Tween-20, the membrane was incubated with the primary antibody at 4 °C overnight, followed by incubation with HRP conjugate–secondary antibody at RT for an hour. The signals were detected with the ECL system (Thermo Fisher Scientific). Primary antibodies were as follows: anti-ERK (Santa Cruz, Cat. No. sc-154); anti-pERK (Proteintech, Cat. No. 15361-1-AP); anti-SRC (Cell Signaling Technology, Cat. No. 2109S); anti-pSRC(Y416) (Cell Signaling Technology, Cat. No. 2101S); anti-beta actin (ORIGENE, Cat. No. TA811000); anti-βarrestin1(Proteintech, Cat. No. 15361-1-AP); anti-βarrestin2 (Proteintech, Cat. No. 10171-1-AP).

Turning to `CCC/C=C\C=C\CCCCCCCCC=O` [bombykal], the EC50 turned out to be 36 ± 3.89 nM in assay [1]; 90 ± 11.1 nM in assay [2] (BmArr1, read-out: potency of recruitment of BmArr1 to BmOR3 (concentration-dependent)); 151 ± 21.3 nM in assay [2] (β-arrestin-2, read-out: potency of recruitment of β-arrestin-2 to BmOR3 (concentration-dependent)). In assay [3], the “BmOR3 internalization (BRET signal between Rluc-BmOR3 and Lyn-YFP)” value is recorded as “significant decrease in the BRET signal”. The “phosphorylation level of ERK” value in assay [4] is recorded as “significantly elevated”. Also, the “phosphorylation level of SRC” value in assay [4] is “significantly elevated”.
